Source: ChEMBL document CHEMBL1128307, “2-Aralkynyl and 2-heteroalkynyl derivatives of adenosine-5'-N-ethyluronamide as selective A2a adenosine receptor agonists” (J Med Chem, 1995)

Experiments:
[1] = Hydrophobicity index (k'') (RP-HPLC pH 7.5); format: ADME
Adenosine receptor A2a [2] = molecular target: T1, Adenosine receptor A2a (Rattus norvegicus, UniProt P30543)
Description: Functional activity against adenosine A2a receptor from rat aorta.

Adenosine receptor A2a [3] = molecular target: T1, Adenosine receptor A2a; remark: listed apart in the source
Adenosine receptor A1 [4] = molecular target: T2, Adenosine receptor A1 (Rattus norvegicus, UniProt P25099); experiment: Functional activity against adenosine A1 receptor from rat atria.
T2 sequence (P25099 whole entry): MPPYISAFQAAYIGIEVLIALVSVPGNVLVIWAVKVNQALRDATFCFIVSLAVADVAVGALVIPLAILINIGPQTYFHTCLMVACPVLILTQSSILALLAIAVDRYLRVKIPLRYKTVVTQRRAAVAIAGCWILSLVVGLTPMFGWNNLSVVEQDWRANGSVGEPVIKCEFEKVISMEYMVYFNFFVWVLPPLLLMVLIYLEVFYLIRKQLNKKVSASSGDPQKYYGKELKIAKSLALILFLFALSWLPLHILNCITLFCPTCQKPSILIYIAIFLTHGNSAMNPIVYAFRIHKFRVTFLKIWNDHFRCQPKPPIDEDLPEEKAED

Adenosine receptor A1 [5] = molecular target: T2, Adenosine receptor A1
Description: Binding affinity against adenosine A1 receptor from rat brain using [3H]CHA as a radioligand.

Adenosine receptor A2a [6] = molecular target: T1, Adenosine receptor A2a; experiment: Functional activity against A2a adenosine receptor from rat aorta.

T1 sequence (P30543 whole entry): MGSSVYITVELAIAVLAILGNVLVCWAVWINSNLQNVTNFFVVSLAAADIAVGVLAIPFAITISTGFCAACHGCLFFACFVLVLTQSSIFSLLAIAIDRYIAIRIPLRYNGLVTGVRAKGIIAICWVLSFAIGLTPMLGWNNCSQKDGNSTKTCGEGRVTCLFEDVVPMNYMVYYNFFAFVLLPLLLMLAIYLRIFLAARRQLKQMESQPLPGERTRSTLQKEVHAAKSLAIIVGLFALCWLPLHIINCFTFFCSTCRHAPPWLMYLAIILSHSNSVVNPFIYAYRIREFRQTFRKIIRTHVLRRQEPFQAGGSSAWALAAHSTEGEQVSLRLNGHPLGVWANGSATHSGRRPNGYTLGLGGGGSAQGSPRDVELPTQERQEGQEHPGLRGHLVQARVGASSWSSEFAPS

Row | k' [1] | EC50 (Adenosine receptor A2a [2]) [nM] | Ki (Adenosine receptor A2a [3]) [nM] | EC50 (Adenosine receptor A1 [4]) [nM] | Ki (Adenosine receptor A1 [5]) [nM] | EC50 (Adenosine receptor A2a [6]) [nM] | Structure (SMILES)
1 | 0.25 | 440 | 57.8 | – | – | – | C#Cc1nc(N)c2ncn([C@@H]3O[C@H](C(=O)NCC)[C@@H](O)[C@H]3O)c2n1
2 | 5.82 | – | 1.2 | 6480 | 209 | – | CCNC(=O)[C@H]1O[C@@H](n2cnc3c(N)nc(C#CCCCc4ccccc4)nc32)[C@H](O)[C@@H]1O
3 | 2.04 | 1500 | 120 | > 10000 | 698 | – | CCNC(=O)[C@H]1O[C@@H](n2cnc3c(N)nc(C#Cc4ccccc4)nc32)[C@H](O)[C@@H]1O
4 | 2.76 | – | – | – | – | – | OC[C@H]1O[C@@H](n2cnc3c(NC4CCCC4)nc(Cl)nc32)[C@H](O)[C@@H]1O
5 | 2.57 | 596 | – | – | – | – | CCCCC#Cc1nc(N)c2ncn([C@@H]3O[C@H](C(=O)NCC)[C@@H](O)[C@H]3O)c2n1
6 | 0.57 | > 10000 | 87 | > 10000 | 428 | – | CCNC(=O)[C@H]1OC(n2cnc3c(N)nc(C#Cc4ccncc4)nc32)[C@H](O)[C@@H]1O (stereo not given in full)
7 | 1.02 | 110 | 6.3 | > 10000 | 1000 | – | CCNC(=O)[C@H]1OC(n2cnc3c(N)nc(C#Cc4ccc(C=O)cc4)nc32)[C@H](O)[C@@H]1O (stereo not given in full)
8 | 0.66 | 660 | 20.6 | > 10000 | 497 | – | CCNC(=O)[C@H]1OC(n2cnc3c(N)nc(C#Cc4ccc(O)cc4)nc32)[C@H](O)[C@@H]1O (stereo not given in full)
9 | 1.18 | 1670 | 187 | > 10000 | > 10000 | – | CCNC(=O)[C@H]1OC(n2cnc3c(N)nc(C#Cc4ccc(C(C)=O)cc4)nc32)[C@H](O)[C@@H]1O (stereo not given in full)
10 | 0.51 | 491 | 234 | 415 | 139 | – | CCNC(=O)[C@H]1OC(n2cnc3c(N)nc(C#Cc4cccnc4)nc32)[C@H](O)[C@@H]1O (stereo not given in full)
11 | 1.11 | 302 | 4.3 | 322 | 27.5 | – | CCNC(=O)[C@H]1OC(n2cnc3c(N)nc(C#CCN4CCCCC4)nc32)[C@H](O)[C@@H]1O (stereo not given in full)
12 | 0.46 | 4070 | 113 | > 10000 | 599 | – | CCNC(=O)[C@H]1OC(n2cnc3c(N)nc(C#Cc4ccc(N)cc4)nc32)[C@H](O)[C@@H]1O (stereo not given in full)
13 | 1.82 | 1210 | 21.5 | > 10000 | 900 | – | CCNC(=O)[C@H]1OC(n2cnc3c(N)nc(C#Cc4ccc([N+](=O)[O-])cc4)nc32)[C@H](O)[C@@H]1O (stereo not given in full)
14 | 0.28 | 531 | 27.4 | 358 | 90.5 | – | CCNC(=O)[C@H]1OC(n2cnc3c(N)nc(C#CCN4CCOCC4)nc32)[C@H](O)[C@@H]1O (stereo not given in full)
15 | 5.79 | 2990 | 315 | – | 2430 | – | CCNC(=O)[C@H]1OC(n2cnc3c(N)nc(C#Cc4ccc(C(F)(F)F)cc4)nc32)[C@H](O)[C@@H]1O (stereo not given in full)
16 | 1.63 | – | 19.5 | > 10000 | 597 | 227 | CCNC(=O)[C@H]1OC(n2cnc3c(N)nc(C#Cc4cccs4)nc32)[C@H](O)[C@@H]1O (stereo not given in full)
17 | 2.15 | 3480 | 52.4 | > 10000 | 414 | – | CCNC(=O)[C@H]1OC(n2cnc3c(N)nc(C#Cc4ccc(OC)cc4)nc32)[C@H](O)[C@@H]1O (stereo not given in full)
18 | 2.4 | 406 | 1.6 | 164 | 27.4 | – | CCNC(=O)[C@H]1OC(n2cnc3c(N)nc(C#CCc4ccccc4)nc32)[C@H](O)[C@@H]1O (stereo not given in full)
19 | 1.06 | 3570 | 176 | > 10000 | 1440 | – | CCNC(=O)[C@H]1OC(n2cnc3c(N)nc(C#Cc4cccc(C=O)c4)nc32)[C@H](O)[C@@H]1O (stereo not given in full)
20 | 1.06 | > 10000 | 130 | > 10000 | 310 | – | CCNC(=O)[C@H]1OC(n2cnc3c(N)nc(C#Cc4ccco4)nc32)[C@H](O)[C@@H]1O (stereo not given in full)
21 | 5.49 | 468 | 488 | > 10000 | 4460 | – | CCNC(=O)[C@H]1OC(n2cnc3c(N)nc(C#Cc4cccc5ccccc45)nc32)[C@H](O)[C@@H]1O (stereo not given in full)
22 | 0.76 | 6520 | 54.8 | > 10000 | 1600 | – | CCNC(=O)[C@H]1OC(n2cnc3c(N)nc(C#Cc4ccc(CC#N)cc4)nc32)[C@H](O)[C@@H]1O (stereo not given in full)
23 | 1.14 | 1300 | 1160 | > 10000 | 6860 | – | CCNC(=O)[C@H]1OC(n2cnc3c(N)nc(C#Cc4ccccc4C=O)nc32)[C@H](O)[C@@H]1O (stereo not given in full)
24 | 2.28 | 1350 | 743 | > 10000 | > 10000 | – | CCNC(=O)[C@H]1OC(n2cnc3c(N)nc(C#Cc4ccc(CCC(=O)OC(C)(C)C)cc4)nc32)[C@H](O)[C@@H]1O (stereo not given in full)
25 | 3.59 | 3290 | 36.3 | 8530 | 500 | – | CCNC(=O)[C@H]1OC(n2cnc3c(N)nc(C#Cc4ccc(C)cc4)nc32)[C@H](O)[C@@H]1O (stereo not given in full)
26 | 2.33 | > 10000 | 81.4 | > 10000 | 3310 | – | CCNC(=O)[C@H]1OC(n2cnc3c(N)nc(C#Cc4ccc(F)cc4)nc32)[C@H](O)[C@@H]1O (stereo not given in full)
27 | 0.32 | 6420 | 1500 | > 10000 | 7500 | – | CCNC(=O)[C@H]1OC(n2cnc3c(N)nc(C#Cc4ccc(C(N)=O)cc4)nc32)[C@H](O)[C@@H]1O (stereo not given in full)
28 | 0.49 | 243 | 89.8 | 840 | 114 | – | CCNC(=O)[C@H]1OC(n2cnc3c(N)nc(C#Cc4ccccn4)nc32)[C@H](O)[C@@H]1O (stereo not given in full)
29 | 0.24 | – | – | – | – | – | CCNC(=O)[C@H]1O[C@@H](n2cnc3c(N)nc(NCCc4ccc(CCC(=O)O)cc4)nc32)[C@H](O)[C@@H]1O [CGS-21680]

Row | Structure (SMILES) | k' [1] | EC50 (Adenosine receptor A2a [2]) [nM] | Ki (Adenosine receptor A2a [3]) [nM] | EC50 (Adenosine receptor A1 [4]) [nM] | Ki (Adenosine receptor A1 [5]) [nM] | EC50 (Adenosine receptor A2a [6]) [nM]
30 | CCNC(=O)[C@H]1OC(n2cnc3c(N)nc(C#CCN4CCN(C)CC4)nc32)[C@H](O)[C@@H]1O (stereo not given in full) | 0.42 | 408 | 19.1 | 877 | 35.9 | –
31 | CCNC(=O)[C@H]1OC(n2cnc3c(N)nc(C#CCN4CCSCC4)nc32)[C@H](O)[C@@H]1O (stereo not given in full) | 0.66 | 223 | 5.9 | 306 | 52.8 | –
32 | CCNC(=O)[C@H]1OC(n2cnc3c(N)nc(C#Cc4ccc(CCC(=O)O)cc4)nc32)[C@H](O)[C@@H]1O (stereo not given in full) | – | 0.008 | > 1000 | > 10000 | > 1000 | –
33 | CCNC(=O)[C@H]1OC(n2cnc3c(N)nc(C#Cc4nccs4)nc32)[C@H](O)[C@@H]1O (stereo not given in full) | 0.55 | 28.7 | 41.3 | 7160 | 85.4 | –
34 | CCNC(=O)[C@H]1OC(n2cnc3c(N)nc(C#CCCc4ccccc4)nc32)[C@H](O)[C@@H]1O (stereo not given in full) | 3.16 | 210 | 7 | > 10000 | 448 | –
35 | CCNC(=O)[C@H]1OC(n2cnc3c(N)nc(C#CCn4ccnc4)nc32)[C@H](O)[C@@H]1O (stereo not given in full) | 0.22 | 753 | 16.5 | 3140 | 178 | –
36 | CCNC(=O)[C@H]1O[C@@H](n2cnc3c(N)ncnc32)[C@H](O)[C@@H]1O [NECA] | 0.19 | – | – | – | – | –
